SMILES strings stand for the structures.

The assay relates to T1, AiiE.
T1 construct: full-length ORF (ca. 750 bp) in pET-19m, E. coli Rosetta DE3; His6 tag cut off by TEV; 240B1
Nature of the assay: phenol red proton-release assay (A557), Lineweaver-Burk. The format is biochemical, Enterobacter sp. CS66. To be noted: 1 mM HEPES, 200 mM NaCl, 50 uM phenol red, pH 7.5. The text has this: phenol red proton-release assay (A557), Lineweaver-Burk on AiiE
As to `CCCC(=O)N[C@H]1CCOC1=O` [C4-HSL], the Km amounted to 6.01 mM.
Turning to `CCCCCC(=O)N[C@H]1CCOC1=O` [C6-HSL], the Km came to 7.88 mM.
`CCCCCCCC(=O)N[C@H]1CCOC1=O` [C8-HSL]: the Km stood at 10.3 mM.
Then `CCCCCCCCCC(=O)N[C@H]1CCOC1=O` [C10-HSL], with 14.9 mM.
Then `CCCCCCCCCCCC(=O)N[C@H]1CCOC1=O` [C12-HSL], with 15.2 mM.

The values above are taken from paper PMC5905603, “Purification and characterisation of a quorum quenching AHL-lactonase from the endophytic bacterium Enterobacter sp. CS66” (FEMS Microbiology Letters, 2018).
